{"source": "patent US20060223849A1", "about": "“Benzazole derivatives, compositions, and methods of use as beta-secretase inhibitors” (priority 2005, published 2006)", "test_system": "HEK293 cells stably expressing wildtype human APP695 protein (HEK-APPwt cells)", "test": "Aβ cell based assay (Aβ1-40 secretion, ELISA)", "details": "1 hr room temperature then five-hour incubation at 37° C., Aβ1-40 ELISA, DAPT as 100% inhibition reference, read-out: EC50, reduction of Aβ1-40 secretion in the cell based assay", "procedure": "Aβ Cell Based Assay Procedure\nIn the following assay, the proteolytic activity of BACE in cells exposed to varying concentrations of a compound of interest is measured by observing the amount of Aβ1-40 secreted from HEK293 cells (Human Embryonic Kidney epithelial cell line) stably expressing either wildtype human APP695 protein (HEK-APPwt cells).\nHEK-APPwt cells were grown in high glucose DMEM (Dulbecco's Modified Eagles Medium) with 4500 mg glucose/L,L-glutamine, NaHCO3, pyrdoxin HCl, 10 mM HEPES (4-(2-hydroxyethyl)-1-piperazineethanesulfonic acid) (pH 7.4), 0.1 mM NEAA (Non-essential Amino Acids) (GIBCO Cat#11140-050), 10% fetal bovine serum and 250 μg/ml hygromycin in T-225 flasks at 37° C. with CO2 and humidity control.\nTest compounds were initially prepared in DMSO and diluted with DMEM media containing 2% FBS (Fetal bovine serum) and 0.05% Tween20. Ten standard compound solutions were prepared having a range of concentrations. The standard compound solutions were used to determine the EC50 of the test compound. The range of concentrations chosen may depend on the compound's predicted potency.\nTo prepare the cells for the assay, a flask containing HEK-APPwt cells were trypsinized briefly (1 mL trypsin), and once the cells detached, 4 mL of 10% FBS-DMEM was added to the flask. The detached cells were centrifuged at 900 rpm for 5 min to form a pellet.\nThe HEK-APPwt cell pellet was re-suspended with 10 mL DMEM media containing 2% FBS. 80 μL of the cell suspension was added to each well of a 96-well cell culture plate to give 100,000 cells/well. 10 μL of a standard compound solution was added to each well of the 96-well cell culture plate followed by 10 μL of Alamar blue solution. The cells were incubated at room temperature for 1 hr, followed by a five-hour incubation in the CO2 incubator at 37° C.\nAt the end of the incubation, the plates were removed from incubator, and the supernatant was collected. Aβ1-40 concentration in the medium was measured by using a commercial Aβ1-40 ELISA kit (IBL, Japan). Briefly, the ELISA plates were coated with anti-human Aβ35-40 mouse IgG monoclonal antibody. A horseradish peroxidase enzyme conjugated anti-human Aβ11-28 mouse IgG monoclone antibody was used for detection. The cell culture supernatant was diluted 1:4 fold with (EIA buffer+Protease inhibitor (buffer containing Protease Inhibitor (1 mL PI/30 mL buffer). A 100 μL aliquot of the diluted supernatant was added to each well of the ELISA plate and incubated for 6 hrs at 4° C. The ELISA plate was washed 8 times with phosphate buffered saline (PBS) containing 0.05% Tween 20.\nA 100 μL of detection antibody was then added and incubated for 1 hour at 4° C. The plate was washed 8 times with PBS buffer containing 0.05% Tween 20 followed by addition of 100 μL of the substrate with the chromogen tetramethyl benzidine (TMB). The plate was incubated in the dark at room temperature for about 30 min and a stop solution (1N H2SO4) was added.\nThe intensity of the color developed was measured at 450 nm. The optical density at 450 nm (OD450) is proportional to the concentration of human Aβ1-40 secreted by the cell. As a reference, N—[N-(3,5-difluorophenacetyl-L-alanyl)]-S-phenylglycine t-butyl ester (DAPT, a γ-secretase inhibitor) was used to indicate 100% inhibition of BACE activity. Thus, the assay measures the ability of a compound of interest to reduce Aβ1-40 secretion. Compound potency was reported as the EC50 by calculating the percent inhibition at all concentration levels and the data were fit with non-linear curve fitting algorithm using in GraphPad Prism.", "data": [{"compound": "CCS(=O)(=O)c1cc(C(=O)Nc2ncc[nH]2)c2[nH]c(NC(=O)c3cc4ccccc4cn3)nc2c1", "note": "[Example 491, isoquinoline-3-carboxylic acid [5-ethanesulfonyl-7-(1H-imidazol-2-ylcarbamoyl)-1H-benzoimidazol-2-yl]-amide]", "values": [{"measurement": "EC50", "result": "≤ 2", "unit": "µM"}]}]}
